Results from ChEMBL document CHEMBL5143758, “2-Amino-1,3,4-thiadiazoles as Glutaminyl Cyclases Inhibitors Increase Phagocytosis through Modification of CD47-SIRPα Checkpoint” (ACS Med Chem Lett, 2022).

These compounds were tested against Glutaminyl-peptide cyclotransferase-like protein (Homo sapiens, UniProt Q9NXS2) (assay: Inhibition of recombinant human isoQC using H-Gln-AMC hydrobromide as fluorogenic substrate incubated for 6 hrs by fluorometric microplate reader analysis).
Glutaminyl-peptide cyclotransferase-like protein, sequence (Q9NXS2 whole entry): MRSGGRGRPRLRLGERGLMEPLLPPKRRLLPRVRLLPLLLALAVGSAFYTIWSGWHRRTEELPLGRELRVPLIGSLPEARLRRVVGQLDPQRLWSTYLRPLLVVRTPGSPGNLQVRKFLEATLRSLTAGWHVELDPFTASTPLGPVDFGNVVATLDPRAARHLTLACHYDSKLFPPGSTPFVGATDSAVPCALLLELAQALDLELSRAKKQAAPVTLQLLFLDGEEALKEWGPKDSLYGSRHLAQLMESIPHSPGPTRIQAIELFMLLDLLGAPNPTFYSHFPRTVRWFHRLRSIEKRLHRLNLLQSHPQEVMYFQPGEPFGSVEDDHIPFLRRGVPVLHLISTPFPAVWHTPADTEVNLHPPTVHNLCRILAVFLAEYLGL
Work on COc1ccc(NC(=S)NCCCn2ccnc2)cc1OC yielded an IC50 of 0.351 µM.

What follows are compounds tested against Glutaminyl-peptide cyclotransferase (Homo sapiens, UniProt Q16769).
Glutaminyl-peptide cyclotransferase, sequence (Q16769 whole entry): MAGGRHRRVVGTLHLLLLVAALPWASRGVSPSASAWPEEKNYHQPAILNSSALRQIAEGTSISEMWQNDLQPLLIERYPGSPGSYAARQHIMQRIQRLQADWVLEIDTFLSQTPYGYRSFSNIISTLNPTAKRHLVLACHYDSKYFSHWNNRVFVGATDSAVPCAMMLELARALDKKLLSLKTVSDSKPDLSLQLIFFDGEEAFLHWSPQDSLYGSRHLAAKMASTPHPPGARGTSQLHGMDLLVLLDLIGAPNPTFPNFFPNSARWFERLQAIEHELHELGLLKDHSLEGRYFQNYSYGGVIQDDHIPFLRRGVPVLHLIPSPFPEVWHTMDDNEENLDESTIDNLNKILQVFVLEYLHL
Description: Inhibition of recombinant human QC using H-Gln-AMC hydrobromide as fluorogenic substrate incubated for 6 hrs by fluorometric microplate reader analysis
With Cc1c[nH]cn1 the IC50 was 110 µM.
With O=C(O)c1ccc2cccc(O)c2n1 the IC50 was 203 µM.
In the case of Cc1cncn1-c1ccccc1, the IC50 is reported as 144 µM.
Compound Cn1cccc(O)c1=O has an IC50 of 772 µM.
O=c1ccocc1O was tested, and the IC50 was 232 µM.
Compound Sc1nc2ccccc2[nH]1 [2-MERCAPTOBENZIMIDAZOLE] has an IC50 of 551 µM.
In the case of Oc1ccccc1O [CATECHOL], the IC50 is reported as 5 µM.
Oc1cccc2cccnc12 [OXYQUINOLINE] showed an IC50 of 208 µM.
In the case of O=C1CNC(=S)N1 [THIOHYDANTOIN], the IC50 is reported as 390 µM.
